Experimental data from the supplement of paper PMC11061612.

Tests used:
Experiment in all cases: Bliss excess, mean over the matrix (fraction); higher = more synergy
[1] = test system: TE-4 (Esophageal Squamous Cell Carcinoma)
Method in brief: (§1)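 Bliss excess equals the observed combination effect minus the expected value EA + EB − EA·EB, where EA and EB are the effects of each agent alone. Combination Emax is the second-highest inhibition within the matrix. Inhibition was scaled from CellTiter-Glo 2.0 luminescence, with 0 set by vehicle wells and 1 by blank wells, after 72 hours of two-drug dosing of cells plated in 1536-well plates.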

[2] = test system: COLO-829 (Melanoma)
Method in brief: as §1

[3] = test system: RKO (Colorectal Carcinoma)
Method in brief: as §1

[4] = test system: SUP-T1 (T-Lymphoblastic Leukemia)
Method in brief: as §1

[5] = test system: RT-112 (Bladder Carcinoma)
Method in brief: as §1

[6] = test system: LU-139 (Small Cell Lung Carcinoma)
Method in brief: as §1

[7] = test system: KARPAS-231 (B-Cell Non-Hodgkin's Lymphoma)
Method in brief: as §1

[8] = test system: SW1271 (Small Cell Lung Carcinoma)
Method in brief: as §1

[9] = test system: MDA-MB-468 (Breast Carcinoma)
Method in brief: as §1

[10] = test system: LB771-HNC (Head and Neck Carcinoma)
Method in brief: as §1

[11] = test system: HMV-II (Melanoma)
Method in brief: as §1

[12] = test system: PCI-30 (Head and Neck Carcinoma)
Method in brief: as §1

[13] = test system: CAL-51 (Breast Carcinoma)
Method in brief: as §1

[14] = test system: KYSE-410 (Esophageal Squamous Cell Carcinoma)
Method in brief: as §1

[15] = test system: NCI-H28 (Mesothelioma)
Method in brief: as §1

[16] = test system: CTB-1 (B-Cell Non-Hodgkin's Lymphoma)
Method in brief: as §1

[17] = test system: 8305C (Thyroid Gland Carcinoma)
Method in brief: as §1

[18] = test system: CAL-54 (Kidney Carcinoma)
Method in brief: as §1

[19] = test system: OC-314 (Ovarian Carcinoma)
Method in brief: as §1

[20] = test system: NCI-H747 (Colorectal Carcinoma)
Method in brief: as §1

Row | Compound | Bliss excess [1] | Bliss excess [2] | Bliss excess [3] | Bliss excess [4] | Bliss excess [5] | Bliss excess [6] | Bliss excess [7] | Bliss excess [8] | Bliss excess [9] | Bliss excess [10] | Bliss excess [11] | Bliss excess [12] | Bliss excess [13] | Bliss excess [14] | Bliss excess [15] | Bliss excess [16] | Bliss excess [17] | Bliss excess [18] | Bliss excess [19] | Bliss excess [20]
1 | CN(CCO)CC[C@H](CSc1ccccc1)Nc1ccc(S(=O)(=O)NC(=O)c2ccc(N3CCC([C@@H](O)c4ccccc4-c4ccc(Cl)cc4)CC3)cc2)cc1S(=O)(=O)C(F)(F)F [AZD4320] + Cn1cnc2c(F)c(Nc3ccc(Br)cc3Cl)c(C(=O)NOCCO)cc21 [Selumetinib] (first compound max 1 µM, 7x7, partner max 3 µM) | 0.0025 | -0.0351 | 0.0229 | -0.0462 | 0.113 | -0.006 | -0.006 | 0.0306 | -0.0301 | 0.0178 | 0.0015 | 0.0023 | 0.0502 | 0.0417 | 0.0103 | -0.0849 | 0.097 | 0.0336 | 0.0048 | -0.0306
2 | Cc1c2c(nn1C)CSCc1cc(n(C)n1)CSc1cc(c3ccccc3c1)OCCCc1c(C(=O)O)n(C)c3c-2c(Cl)ccc13 [AZD5991] + C1CN(CCC1(C(=O)N[C@@H](CCO)C2=CC=C(C=C2)Cl)N)C3=NC=NC4=C3C=CN4 [Capivasertib] (first compound max 1 µM, 7x7, partner max 3 µM) | 0.0626 | -0.0212 | 0.0296 | -0.0218 | 0.0563 | -0.0056 | -0.0402 | -0.0664 | 0.0256 | 0.0612 | -0.0307 | 0.0204 | 0.0392 | -0.0218 | -0.0315 | -0.0048 | 0.0008 | 0.0428 | 0.0362 | 0.0106
3 | Cc1c2c(nn1C)CSCc1cc(n(C)n1)CSc1cc(c3ccccc3c1)OCCCc1c(C(=O)O)n(C)c3c-2c(Cl)ccc13 [AZD5991] + C=CCn1c(=O)c2cnc(Nc3ccc(N4CCN(C)CC4)cc3)nc2n1-c1cccc(C(C)(C)O)n1 [AZD1775] (first compound max 1 µM, partner max 1 µM) | 0.0115 | -0.0169 | -0.0002 | 0.0028 | 0.0566 | -0.0421 | 0.0195 | -0.0385 | -0.0956 | 0.0271 | 0.0001 | 0.0371 | 0.045 | 0.0218 | -0.0023 | -0.0417 | -0.0065 | -0.0522 | 0.0319 | -0.0103
4 | Cc1c2c(nn1C)CSCc1cc(n(C)n1)CSc1cc(c3ccccc3c1)OCCCc1c(C(=O)O)n(C)c3c-2c(Cl)ccc13 [AZD5991] + CC1(C)CCC(CN2CCN(c3ccc(C(=O)NS(=O)(=O)c4ccc(NCC5CCOCC5)c([N+](=O)[O-])c4)c(Oc4cnc5[nH]ccc5c4)c3)CC2)=C(c2ccc(Cl)cc2)C1 [Venetoclax] (first compound max 1 µM, 7x7, partner max 1 µM) | 0.0017 | -0.0122 | 0.0107 | -0.0207 | 0.057 | 0.0307 | -0.0232 | -0.0504 | 0.0812 | 0.0035 | -0.0257 | -0.0376 | 0.0481 | -0.0393 | -0.0812 | -0.0491 | -0.0189 | -0.0151 | -0.0045 | -0.0438
5 | Cc1c2c(nn1C)CSCc1cc(n(C)n1)CSc1cc(c3ccccc3c1)OCCCc1c(C(=O)O)n(C)c3c-2c(Cl)ccc13 [AZD5991] + CN(C)CCCOc1ccc(-c2ccc3ncc4c(c3c2)n(C2CCOCC2)c(=O)n4C)cn1 [AZD0156] (first compound max 1 µM, 7x7, partner max 1 µM) | 0.0186 | -0.0492 | 0.0041 | -0.0007 | -0.0217 | -0.0236 | 0.041 | 0.0034 | -0.0544 | 0.0096 | -0.033 | 0.0079 | 0.0198 | -0.028 | -0.0024 | -0.0457 | -0.0178 | -0.0036 | 0.0093 | -0.0289
6 | Cc1c2c(nn1C)CSCc1cc(n(C)n1)CSc1cc(c3ccccc3c1)OCCCc1c(C(=O)O)n(C)c3c-2c(Cl)ccc13 [AZD5991] + C[C@@H]1COCCN1C2=NC(=NC(=C2)C3(CC3)[S@](=N)(=O)C)C4=C5C=CNC5=NC=C4 [AZD6738] (first compound max 1 µM, 7x7, partner max 10 µM) | 0.0683 | 0.0471 | 0.0082 | -0.024 | 0.0348 | 0.0214 | 0.0252 | 0.0121 | 0.0455 | 0.0599 | -0.0496 | 0.0378 | 0.0585 | 0.0281 | 0.0026 | -0.0314 | -0.0605 | -0.0259 | 0.0197 | -0.018
7 | Cc1c2c(nn1C)CSCc1cc(n(C)n1)CSc1cc(c3ccccc3c1)OCCCc1c(C(=O)O)n(C)c3c-2c(Cl)ccc13 [AZD5991] + C[C@@H](Nc1cc(F)cc(F)c1)c1cc(C(=O)N(C)C)cc2c(=O)cc(N3CCOCC3)oc12 [AZD8186] (first compound max 1 µM, 7x7, partner max 3 µM) | 0.0492 | -0.0758 | -0.0116 | -0.0003 | 0.0316 | -0.0439 | -0.0107 | -0.0576 | 0.0092 | -0.0206 | -0.0401 | -0.0209 | 0.0173 | -0.0639 | -0.0245 | -0.0135 | -0.0844 | -0.004 | -0.0029 | -0.0421
